Experimental data reported in patent US20070149456A1, “Epithelial sodium channel inhibiting agents and uses therefor” (University of Pittsburgh, priority 2005, published 2007).
Like-named read-outs stand apart in the source and are kept apart here.

Target: T1, mouse ENaC (Mus musculus, UniProt Q61180+Q9WU38+Q9WU39, DEL206-231)
T1 construct: expressed in transfected cells; host or cells: Xenopus laevis oocytes (cRNA injection)
T1 sequence (Q61180 with tags, fused parts or gaps DEL206-231): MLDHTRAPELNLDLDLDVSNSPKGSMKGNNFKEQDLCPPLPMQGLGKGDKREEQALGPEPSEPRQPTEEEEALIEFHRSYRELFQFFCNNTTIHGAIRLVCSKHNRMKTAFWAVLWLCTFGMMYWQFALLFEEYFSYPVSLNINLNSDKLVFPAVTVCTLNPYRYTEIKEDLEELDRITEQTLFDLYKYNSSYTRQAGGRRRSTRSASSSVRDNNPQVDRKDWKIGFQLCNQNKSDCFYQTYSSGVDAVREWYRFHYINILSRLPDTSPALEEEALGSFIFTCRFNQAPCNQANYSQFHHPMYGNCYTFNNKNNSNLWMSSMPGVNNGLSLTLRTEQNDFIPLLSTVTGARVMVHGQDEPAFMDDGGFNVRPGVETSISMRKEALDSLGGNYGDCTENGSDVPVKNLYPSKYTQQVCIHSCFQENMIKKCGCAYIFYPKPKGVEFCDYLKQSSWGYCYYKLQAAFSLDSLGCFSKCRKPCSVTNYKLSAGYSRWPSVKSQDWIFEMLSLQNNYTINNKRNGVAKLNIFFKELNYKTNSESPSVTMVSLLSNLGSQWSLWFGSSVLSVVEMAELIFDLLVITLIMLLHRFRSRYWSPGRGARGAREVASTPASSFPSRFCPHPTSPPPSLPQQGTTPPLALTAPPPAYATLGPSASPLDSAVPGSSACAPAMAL
T1 sequence (Q9WU38 1-638): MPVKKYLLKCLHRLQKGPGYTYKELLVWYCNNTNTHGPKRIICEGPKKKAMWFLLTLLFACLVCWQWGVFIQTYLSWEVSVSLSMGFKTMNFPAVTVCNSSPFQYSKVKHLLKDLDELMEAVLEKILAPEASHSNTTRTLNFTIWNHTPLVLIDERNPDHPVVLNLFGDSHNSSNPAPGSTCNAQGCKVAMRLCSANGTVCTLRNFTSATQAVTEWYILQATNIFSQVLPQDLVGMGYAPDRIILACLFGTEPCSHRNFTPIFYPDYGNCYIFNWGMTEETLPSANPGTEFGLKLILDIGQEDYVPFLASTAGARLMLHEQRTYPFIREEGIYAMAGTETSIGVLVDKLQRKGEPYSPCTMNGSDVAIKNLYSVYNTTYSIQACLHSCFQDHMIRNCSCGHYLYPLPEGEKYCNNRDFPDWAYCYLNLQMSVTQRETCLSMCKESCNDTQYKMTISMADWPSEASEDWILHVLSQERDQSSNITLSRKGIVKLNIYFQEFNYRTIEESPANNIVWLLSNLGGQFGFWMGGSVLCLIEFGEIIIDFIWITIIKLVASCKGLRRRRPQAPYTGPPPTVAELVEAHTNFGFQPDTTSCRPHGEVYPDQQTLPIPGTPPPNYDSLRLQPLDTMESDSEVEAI
T1 sequence (Q9WU39 1-655): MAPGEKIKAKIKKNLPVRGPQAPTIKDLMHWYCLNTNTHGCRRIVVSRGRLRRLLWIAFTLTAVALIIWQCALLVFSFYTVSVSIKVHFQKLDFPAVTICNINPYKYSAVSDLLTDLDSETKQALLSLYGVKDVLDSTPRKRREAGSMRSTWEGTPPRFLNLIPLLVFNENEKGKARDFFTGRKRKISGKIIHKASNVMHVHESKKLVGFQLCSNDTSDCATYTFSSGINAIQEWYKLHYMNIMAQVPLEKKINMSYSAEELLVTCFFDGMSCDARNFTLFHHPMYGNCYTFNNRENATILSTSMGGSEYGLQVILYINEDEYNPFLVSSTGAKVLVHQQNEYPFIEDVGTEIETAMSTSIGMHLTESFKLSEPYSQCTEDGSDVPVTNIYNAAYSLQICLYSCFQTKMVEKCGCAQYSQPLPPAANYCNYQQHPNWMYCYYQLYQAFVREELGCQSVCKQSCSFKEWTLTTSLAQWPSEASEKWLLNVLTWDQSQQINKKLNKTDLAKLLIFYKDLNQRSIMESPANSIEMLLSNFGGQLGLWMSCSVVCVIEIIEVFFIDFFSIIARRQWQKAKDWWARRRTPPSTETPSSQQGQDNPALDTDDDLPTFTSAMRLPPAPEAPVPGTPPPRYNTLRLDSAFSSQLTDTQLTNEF
Test: Two-electrode voltage clamp, amiloride-sensitive whole cell Na+ current in Xenopus oocytes expressing wild-type αβγ ENaC
Format: cell-based
Source text: Oocyte Expression—cRNAs for α, β, γ mouse ENaC (wild-type and mutant) subunits and mouse prostasin were synthesized with T3 or T7 m-Message mMachineTM (Ambion, Austin, Tex.). Subunits carrying furin cleavage consensus site mutations and the corresponding wild-type subunits have amino-terminal HA and carboxyl-terminal V5 tags (Hughey, R. P., Bruns, J. B., Kinlough, C. L., Harkleroad, K. L., Tong, Q., Carattino, M. D., Johnson, J. P., Stockand, J. D., and Kleyman, T. R. (2004) J. Biol. Chem. 279, 18111-18114 18). Stage V-VI Xenopus laevis oocytes were pretreated with 1.5 mg/ml of type IV collagenase and injected with 0.5-2 ng of cRNA/subunit. Injected oocytes were maintained as previously reported (Carattino, M. D., Hill, W. G., and Kleyman, T. R. (2003), Arachidonic Acid Regulates Surface Expression of Epithelial Sodium Channels, J Biol. Chem. 278, 36202-36213 29).
Two-electrode Voltage Clamp—Two-electrode voltage clamp (TEV) was performed as previously described (Carattino, M. D., Hill, W. G., and Kleyman, T. R. (2003) J Biol. Chem. 278, 36202-36213 29). The extracellular solution (TEV solution) was (in mM): 110 NaCl, 2 KCl, 1.54 CaCl2, 10 HEPES, pH 7.4, or otherwise as indicated. […] Experiments with oocytes co-expressing ENaC and prostasin and the corresponding controls were performed in the presence of aprotinin (1 μM) to impede any potential degradation of α-26 by prostasin.
Data and Statistical Analyses—and mean time of inhibition are expressed as the mean with a 95% confidence interval (CI); otherwise, data were expressed as the mean ±S.E. (n), where “n” equals the number of independent experiments analyzed. IC50 was estimated from normalized currents plotted as a function of the peptide concentration fitted, as shown in Equation 1 y=t/(1+10^(logX−log/C50)) (Eq. 1) where y is the response variable, X is the concentration of peptide, and IC50 is the concentration of peptide that provokes a response half way between the baseline (t) and maximum response. […] Results

Ac-DLRGALPHPLQRLRTPPPPNPARSAR-NH2 [α-26]
Ki: ~3 µM
time required to achieve half maximal inhibition (1 μM α-26): 42 s
IC50 (amiloride-sensitive current, 3 min perfusion with peptide (FIG. 3A), read-out: IC50, inhibition of wild-type αβγ): 2800 nM
IC50 (holding potential −20 mV, read-out: IC50 at holding potential −20 mV): 2900 nM
IC50 (holding potential −100 mV, read-out: IC50 at holding potential −100 mV): 2900 nM
reversibility of block (α-26 1 μM, washout (FIG. 3D)): reversible inhibitor
